For series [1], the system named is Pfeiffer cells. The series can be described thus: Pfeiffer cell growth inhibition in a long term (11 days), CellTiter-Glo. It is filed as cell-based, Human. As to conditions: Homo sapiens, 264 h, 11 days, read-out: Experiment on Pfeiffer cell growth inhibition in a long term (11 days IC50). In a few lines: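 Exponentially growing cells seeded at 1*10E5 cells/mL and treated the same day with a concentration range. Media and compound were refreshed at days 4 and 7. Viability was read by CellTiter-Glo after 11 days and GI50 values were derived.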
(Cellular ATP, detected with luciferase, serves as a proxy for viable cell number.)

Series [2] deals with Pfeiffer cells. Put plainly: Growth inhibition of Pfeiffer cells in a long term (14 days), CellTiter-Glo. The class given is cell-based, Human. As to conditions: Homo sapiens, 336 h, 14 days, read-out: Pfeiffer (14 days) IC50. In a few lines: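 Pfeiffer DLBCL cells in RPMI 1640 with 10% FBS were treated for 14 days with a 9-point, three-fold compound series (final 0.003-20 μM or 0.3-2000 nM, 0.2% DMSO). Medium and compound were refreshed with cell dilution on days 4, 7 and 11. Viability was read by CellTiter-Glo luminescence, and IC50 values were calculated.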

A further series relates to Karpas-422 cells. The series can be described thus: Growth inhibition of Karpas-422 cells in a long term (11 days), CellTiter-Glo. It is filed as cell-based, Human. The conditions noted are these: Homo sapiens, 264 h; Karpas-422, 11 days; read-out: Karpas-422 (11 days) IC50.
Series [3] is described as follows: Oral pharmacokinetics in rats. The class given is in vivo. As to conditions: male, SD, plasma, rat, intragastric, 3 mg/kg. The protocol: 1. Healthy male SD rats were used as test animals, EED226, […]-07 (3 mg/kg) were administered intragastrically, and the drug concentrations in rat plasma were determined by LC/MS/MS method at different time points after drug administration. The pharmacokinetic behavior of the compounds of the present invention in rats was studied, and the pharmacokinetic properties were evaluated. 2. The test animals were healthy adult male SD rats, with 3 rats in each group, purchased from Shanghai Xipuer-Bikai Laboratory Animal Limited Company. 3. Drug preparation: Compounds EED226, […] were dissolved in DMSO/0.5% HPMC (5/95, v/v) for preparation. The compound SL-ZYE-07 was dissolved in 0.5% HPMC (containing 0.5% Tween 80), vortexed, and sonicated to disperse the solid matter uniformly to obtain a pale white suspension. 4, Operation: EED226, […]-07 were administered to rats by intragastric administration (3 mg/kg), 45 μL of blood was taken through the femoral vein at 0.25, 0.5, 1, 2, 4, 8, 24 hour after administration, and centrifuged in a heparinized centrifuge tube for 5 min, and the plasma samples were separated for analysis. The contents of test compounds in rat plasma after intragastric administration of different compounds were determined by Liquid chromatography-mass spectrometry (LC-MS/MS).

Series [4] can be described thus: Liver microsomal stability (mouse). The class given is in vitro ADME.

For the compound `CS(=O)(=O)N1CC=C(c2cnc(NCc3c(F)ccc4c3CCO4)n3cnnc23)CC1` [E-Y13], the IC50 turned out to be 3.2 nM in the series with Pfeiffer cells [1], 1 nM in the series on Pfeiffer cells [2] and 13 nM with Karpas-422 cells. Besides, the AUC(0-t) in series [3] worked out at 529 ± 150 ng·h/mL. In addition, the AUC(0-inf) in series [3] (extrapolated to infinity, read-out: AUCINF_obs) was 539 ± 150 ng·h/mL. The MRT inf in series [3] (read-out: Average residence time MRTINF_obs) stood at 2.06 ± 0.484 h. Also, the half-life in series [3] (read-out: Half life T1/2 (converted)) is 1.37 ± 0.212 h; in series [4] (mouse, liver microsomes, pH 7.4, mouse liver microsomes, read-out: Half life T-half), 1.58 h. Besides, the Cmax in series [3] (read-out: Peak concentration Cmax) came to 376 ± 273 ng/mL. Also, in series [4] (mouse liver microsomes), the “Clearance rate in vivo Clint In Vivo Extpl” value worked out at 1.50 mL/min. For the same compound, the “Intrinsic clearance rate in vivo Clint In Vitro” value in series [4] (mouse liver microsomes) is reported as 22.2 mL/min/gprot. For the same compound, in series [4] (mouse liver microsomes), the “Liver clearance rate Clint Hep In Vivo Extpl” value worked out at 1.00 mL/min. In series [4] (mouse liver microsomes), the “Metabolic bioavailability MF %” value is on record as 66.7%.

As a reminder, the IC50 is the concentration at which inhibition is half-maximal. As a reminder, the AUC(0-t) is exposure summed from dosing to a finite time, without extrapolation to infinity. A high value points to high exposure.
